{"source": "ChEMBL document CHEMBL1155715", "about": "“New natural epothilones from Sorangium cellulosum, strains So ce90/B2 and So ce90/D13: isolation, structure elucidation, and SAR studies” (J Nat Prod, 2001)", "data": [{"tested_on": "L929", "assay": "(§1) Cytotoxicity against mouse L929 cells", "format": "cell-based", "details": "not given", "units": {"IC50": "µg/mL"}, "values": [{"smiles": "C/C(=C\\c1csc(C)n1)[C@@H]1C/C=C/CCC[C@H](C)[C@H](O)[C@@H](C)C(=O)[C@@H](C)[C@@H](O)CC(=O)O1", "IC50": 0.4}, {"smiles": "C/C(=C\\c1csc(C)n1)[C@@H]1C/C=C/CCC[C@H](C)[C@H](O)[C@@H](C)C(=O)[C@H](C)[C@@H](O)CC(=O)O1", "IC50": 0.08}]}, {"tested_on": "L929", "assay": "as §1", "format": "cell-based", "details": "read-out: IC50", "units": {"IC50": "µg/mL"}, "values": [{"smiles": "C/C(=C\\c1csc(C)n1)[C@@H]1C[C@@H]2O[C@@H]2CCC[C@H](C)[C@H](O)[C@@H](C)C(=O)C(C)(C)[C@@H](O)CC(=O)O1", "note": "[EPOTHILONE A]", "IC50": 0.004}, {"smiles": "Cc1nc(/C=C/[C@@H]2C/C=C\\CCC[C@H](C)[C@H](O)[C@@H](C)C(=O)C(C)(C)[C@@H](O)CC(=O)O2)cs1", "note": "[EPOTHILONE C8]", "IC50": 0.25}, {"smiles": "CCC(=O)[C@@H](C)CCC/C(C)=C\\C[C@H](O)/C(C)=C/c1csc(C)n1", "IC50": "> 4"}, {"smiles": "Cc1nc(/C=C(\\CO)[C@@H]2C[C@@H]3O[C@@H]3CCC[C@H](C)[C@H](O)[C@@H](C)C(=O)C(C)(C)[C@@H](O)CC(=O)O2)cs1", "note": "[EPOTHILONE A9]", "IC50": 0.1}, {"smiles": "C/C(=C\\c1csc(C)n1)[C@@H]1C/C=C\\CCCC[C@H](O)[C@@H](C)C(=O)C(C)(C)[C@@H](O)CC(=O)O1", "note": "[EPOTHILONE C4]", "IC50": 0.8}, {"smiles": "C/C1=C/C[C@@H](/C(C)=C/c2csc(C)n2)OC(=O)C[C@H](O)C(C)(C)C(=O)[C@H](C)[C@@H](O)[C@@H](C)CCC1", "note": "[EPOTHILONE D]", "IC50": 0.02}, {"smiles": "C/C(=C\\c1csc(C)n1)[C@@H]1C[C@@H]2O[C@@H]2CCC[C@H](C)[C@H](O)[C@@H](C)C(=O)[C@H](C)[C@@H](O)CC(=O)O1", "note": "[EPOTHILONE A1]", "IC50": 0.02}, {"smiles": "Cc1nc(/C=C/[C@@H]2C[C@@H]3O[C@@H]3CCC[C@H](C)[C@H](O)[C@@H](C)C(=O)C(C)(C)[C@@H](O)CC(=O)O2)cs1", "note": "[EPOTHILONE A8]", "IC50": 0.02}, {"smiles": "C/C(=C\\c1csc(C)n1)[C@@H](O)C/C=C\\CCC[C@H](C)[C@H](O)[C@@H](C)C(=O)C(C)C", "IC50": 0.8}, {"smiles": "C/C1=C/C[C@@H](/C(C)=C/c2csc(C)n2)OC(=O)C[C@H](O)[C@H](C)C(=O)[C@H](C)[C@@H](O)[C@@H](C)CC(C)CCC1", "note": "(some centres not stated) [EPOTHILONE I5]", "IC50": 0.1}, {"smiles": "C/C(=C\\c1coc(C)n1)[C@@H]1C[C@@H]2O[C@]2(C)CCC[C@H](C)[C@H](O)[C@@H](C)C(=O)C(C)(C)[C@@H](O)CC(=O)O1", "note": "[EPOTHILONE G2]", "IC50": 0.001}, {"smiles": "C/C1=C/C[C@@H](/C(C)=C/c2coc(C)n2)OC(=O)C[C@H](O)C(C)(C)C(=O)[C@H](C)[C@@H](O)[C@@H](C)CCC1", "note": "[EPOTHILONE H2]", "IC50": 0.011}, {"smiles": "Cc1nc(/C=C(\\CO)[C@@H]2C/C=C\\CCC[C@H](C)[C@H](O)[C@@H](C)C(=O)C(C)(C)[C@@H](O)CC(=O)O2)cs1", "note": "[EPOTHILONE C9]", "IC50": 0.2}, {"smiles": "C/C1=C/C[C@@H](/C(C)=C/c2csc(C)n2)OC(=O)C[C@H](O)[C@@H](C)C(=O)[C@H](C)[C@@H](O)[C@@H](C)CC(C)CCC1", "note": "(some centres not stated) [EPOTHILONE I6]", "IC50": 0.6}, {"smiles": "C/C(=C\\c1csc(C)n1)[C@@H]1C/C=C\\CCC[C@H](C)[C@H](O)[C@@H](C)C(=O)[C@H](C)[C@@H](O)CC(=O)O1", "note": "[EPOTHILONE C1]", "IC50": 0.9}, {"smiles": "CCC(=O)[C@@H](C)CCC/C=C\\C[C@H](O)/C(C)=C/c1csc(C)n1", "IC50": "> 4"}, {"smiles": "C/C(=C\\c1csc(C)n1)[C@@H]1C/C=C\\CCCCC[C@H](C)[C@H](O)[C@@H](C)C(=O)C(C)(C)[C@@H](O)CC(=O)O1", "note": "[EPOTHILONE I1]", "IC50": 0.8}, {"smiles": "C/C(=C\\c1csc(C)n1)[C@@H]1C/C=C\\CCC[C@H](C)[C@H](O)CC(=O)C(C)(C)[C@@H](O)CC(=O)O1", "note": "[EPOTHILONE C3]", "IC50": 1.5}, {"smiles": "C/C1=C/C[C@@H](/C(C)=C/c2csc(C)n2)OC(=O)C[C@H](O)[C@@H](C)C(=O)[C@H](C)[C@@H](O)[C@@H](C)CCC1", "note": "[EPOTHILONE D1]", "IC50": 0.035}, {"smiles": "C/C(=C\\c1coc(C)n1)[C@@H]1C/C=C\\CCC[C@H](C)[C@H](O)[C@@H](C)C(=O)C(C)(C)[C@@H](O)CC(=O)O1", "note": "[EPOTHILONE H1]", "IC50": 0.12}, {"smiles": "C/C(=C\\c1csc(CO)n1)[C@@H]1C[C@@H]2O[C@]2(C)CCC[C@H](C)[C@H](O)[C@@H](C)C(=O)C(C)(C)[C@@H](O)CC(=O)O1", "note": "[EPOTHILONE F]", "IC50": 0.0015}, {"smiles": "C/C(=C\\c1csc(C)n1)[C@@H]1C/C=C\\CCC[C@H](C)[C@H](O)[C@@H](C)C(=O)[C@@H](C)[C@@H](O)CC(=O)O1", "note": "[EPOTHILONE C2]", "IC50": 0.8}, {"smiles": "C/C(=C\\c1coc(C)n1)[C@@H]1C[C@@H]2O[C@@H]2CCC[C@H](C)[C@H](O)[C@@H](C)C(=O)C(C)(C)[C@@H](O)CC(=O)O1", "note": "[EPOTHILONE G1]", "IC50": 0.006}, {"smiles": "C/C(=C\\c1csc(C)n1)[C@@H]1C/C=C\\C=C\\C[C@H](C)[C@H](O)[C@@H](C)C(=O)C(C)(C)[C@@H](O)CC(=O)O1", "note": "[EPOTHILONE C6]", "IC50": 0.12}, {"smiles": "C/C(=C\\c1csc(C)n1)[C@H]1OC(=O)C[C@H](O)C(C)(C)C(=O)[C@H](C)[C@@H](O)[C@@H](C)CCC/C=C\\[C@@H]1O", "note": "[EPOTHILONE C7]", "IC50": 0.025}, {"smiles": "C/C(=C\\c1csc(C)n1)[C@@H]1C[C@@H]2O[C@@H]2CCC[C@H](C)[C@H](O)[C@@H](C)C(=O)[C@@H](C)[C@@H](O)CC(=O)O1", "note": "[EPOTHILONE A2]", "IC50": 0.007}, {"smiles": "C/C1=C/C[C@@H](/C(C)=C/c2csc(C)n2)OC(=O)C[C@H](O)[C@H](C)C(=O)[C@H](C)[C@@H](O)[C@@H](C)CCC1", "note": "[EPOTHILONE D2]", "IC50": 0.007}, {"smiles": "C/C(=C\\c1csc(CO)n1)[C@@H]1C[C@@H]2O[C@@H]2CCC[C@H](C)[C@H](O)[C@@H](C)C(=O)C(C)(C)[C@@H](O)CC(=O)O1", "note": "[EPOTHILONE E]", "IC50": 0.01}, {"smiles": "C/C(=C\\c1csc(C)n1)[C@@H]1C/C=C\\CCCC(C)C[C@H](C)[C@H](O)[C@@H](C)C(=O)[C@@H](C)[C@@H](O)CC(=O)O1", "note": "(some centres not stated) [EPOTHILONE I4]", "IC50": 0.3}, {"smiles": "C/C(=C\\c1csc(C)n1)[C@@H]1C/C=C\\CCC[C@H](C)[C@H](O)[C@@H](C)C(=O)C(C)(C)[C@@H](O)CC(=O)O1", "note": "[EPOTHILONE C]", "IC50": 0.06}, {"smiles": "C/C1=C/C[C@@H](/C(C)=C/c2csc(C)n2)OC(=O)C[C@H](O)C(C)(C)C(=O)[C@H](C)[C@@H](O)/C(C)=C/CC1", "note": "[EPOTHILONE D5]", "IC50": 0.2}, {"smiles": "C/C(=C\\c1csc(C)n1)[C@@H]1C/C=C\\CC/C=C(\\C)[C@H](O)[C@@H](C)C(=O)C(C)(C)[C@@H](O)CC(=O)O1", "note": "[EPOTHILONE C5]", "IC50": 1.5}, {"smiles": "C/C(=C\\c1csc(C)n1)[C@@H]1C/C=C\\CCCC(C)C[C@H](C)[C@H](O)[C@@H](C)C(=O)C(C)(C)[C@@H](O)CC(=O)O1", "note": "(some centres not stated) [EPOTHILONE I2]", "IC50": 0.4}, {"smiles": "C/C1=C/C[C@@H](/C(C)=C/c2csc(C)n2)OC(=O)C[C@H](O)C(C)(C)C(=O)[C@H](C)[C@@H](O)[C@@H](C)CC(C)CCC1", "note": "(some centres not stated) [EPOTHILONE I3]", "IC50": 0.6}, {"smiles": "C/C(=C\\c1csc(C)n1)[C@@H]1C[C@@H]2O[C@]2(C)CCC[C@H](C)[C@H](O)[C@@H](C)C(=O)C(C)(C)[C@@H](O)CC(=O)O1", "note": "[PATUPILONE]", "IC50": 0.001}]}]}
